Assay results published in patent US20260355171A1, “INHIBITORS AND USES THEREFOR” (priority 2022, published 2026).

Legend:
[1] = system: primary neurons expressing SARS-CoV-2 NSP5 (AAV9-NSP5-V5); test: Effect on neurons in the presence of NSP5 (AAV9-NSP5-V5, immunofluorescence); format: cell-based, mouse; settings: 0.4, 2, 10 or 50 μM, two days
primary neurons = test: Neuronal cell death in the presence of H2O2; format: cell-based, mouse; settings: 1 or 10 μM compound, 100 μM H2O2
Experimental: Primary neurons were treated with 0.4, 1, 2, 10 or 50 μM of compound 2 or compound 22 (prepared according to Example 2). NSP5 was added to primary neurons at DIV11, and compound 2 or 22 was added 48 hours later. Cells were treated with propidium iodide 48 hours after compound addition. Cells were washed with PBS and fixed with 4% PFA. Cells were then washed and stained with DAPI. Images of cells were taken with ZEISS Axioscan 7 microscope slide scanner. Cell death was determined by Image J analysis, counting the death cell (red, PI)) vs all cells (blue, DAPI).
One hour after compound addition (1 or 10 μM of compound 2 or compound 22) neurons were treated with a cytotoxic agent (100 μM N-methyl-D-aspartate (NMDA), 100 μM H2O2 or 5 μM staurosporine). One hour after treatment with the cytotoxic agent, the media was replaced with fresh media and the neurons were incubated for 24 hours. A final concentration of 1 μM propidium iodide (PI) was added into the well and incubated for 5 mins. Cells were washed with phosphate-buffered saline (PBS) and then fixed with 4% PFA. Cells were then washed and stained with DAPI, and cell death determined as described above.

[2] = Mouse pharmacokinetics, IP administration; format: in vivo
Experimental: Pharmacokinetic parameters of compound 22 (prepared in accordance with Example 2) were determined following intravenous (IV, 3 mg/kg) and intraperitoneal (IP, 10 mg/kg) administration to male C57BL/6 mice.
IV and IP formulations were prepared separately by dissolving solid compound 22 in dimethyl sulfoxide (DMSO) prior to addition of 50 mM phosphate buffered saline (pH 6.5) using vortexing and sonication to produce a colourless solution, and giving a final DMSO concentration of 5% (v/v) for each formulation. The IV formulation was filtered through a 0.22 μm syringe filter prior to dosing, whereas the IP formulation was not filtered.
(§1) The pharmacokinetics of compound 22 was studied in non-fasted male C57BL/6 mice weighing 21.1-26.5 g. Mice had access to food and water ad libitum throughout the pre- and post-dose sampling period.
(§2) Compound 22 was dosed to mice by bolus injection into the lateral tail vein (2 mL/kg) for IV administration and by injection into the IP cavity (5 mL/kg) for IP administration. After dosing, blood samples were collected up to 24 h (n=3 mice per time point) with a maximum of three samples from each mouse via submandibular bleed (approximately 120 μL). No urine samples were collected as mice were housed in bedded cages. Blood was collected into polypropylene Eppendorf tubes containing heparin as anticoagulant. Once collected, blood samples were centrifuged immediately, supernatant plasma was removed, and stored at −80 °C until analysis by liquid chromatography-mass spectrometry (LC-MS). A summary of the bioanalytical method is included in Table 5.
Concentrations of test compound in plasma and tissue samples were determined using a liquid chromatography with tandem mass spectrometry (LCMS/MS) method validated for linearity, accuracy, precision, matrix factor and recovery (refer to Table 5).
Plasma: The plasma calibration curve was prepared by spiking aliquots of blank mouse plasma (25 μL) with test compound standard solutions (5 μL) and internal standard solution (5 μL of diazepam, 5 μg/mL in 50% acetonitrile in water). Test plasma samples (25 μL) were thawed, mixed and then spiked with internal standard solution (5 μL). Plasma protein precipitation was performed by addition of acetonitrile (3-fold volume ratio) and thorough vortex mixing. Samples were centrifuged (RCF=9391×g) for 3 minutes and the supernatant (100 μL) was collected for analysis. The analysis of blood/plasma (B/P) partitioning samples was conducted similarly as for the plasma samples, using protein precipitation with acetonitrile as described above.
The plasma concentration versus time profile was defined by the average plasma concentration at each sample time, and PK parameters were calculated using non-compartmental methods (PKSolver Version 2.0). Standard calculations for each pharmacokinetic parameter are listed below.

[3] = In vivo whole blood-to-plasma ratio; settings: IV 3 mg/kg, 1 h post dose, mouse blood, n=3; read-out: B/P ratio (whole blood-to-plasma)
Experimental: As part of the assessment of the IV pharmacokinetics, blood was collected from mice (n=3) at 1 h post dose for the purposes of determining the whole blood-to-plasma (B/P) ratio.
Blood was collected via cardiac puncture (whilst under gaseous isoflurane anaesthesia) into tubes containing heparin. The haematocrit was determined via centrifugation [13000×g for 4 min using a Clemets® Microhematocrit centrifuge (Clements, Rydalmere, Australia) and Safecap® Plain Self-sealing Mylar Wrapped capillary tubes (Safe-Tec Clinical Products LLC, Broomall, USA)], and values ranged from 32% to 36% for blood samples across the three mice.
Each blood aliquot (25 μL) was collected and matrix matched with an equivalent volume of blank plasma. The remainder of the blood sample was centrifuged and 1×25 μL plasma aliquot was collected and matrix matched with an equivalent volume of blank blood. Samples were frozen on dry ice and subsequently stored at −80 °C until analysis by LC-MS. The B/P ratio was calculated on the basis of the LC-MS response of compound 22 in blood and plasma following centrifugation of whole blood and the average B/P ratio (n=3 mice) is reported.

[4] = Adverse reactions in pharmacokinetic study; format: in vivo, mouse; settings: 24-hour sampling period, IV 3 mg/kg and IP 10 mg/kg
Experimental: as §1, §2

[5] = system: PHP.B hSyn-NSP5-V5 adeno-associated virus; test: Weight loss after AAV injection; format: in vivo, mouse; settings: 10 mg/kg daily, vs Paxlovid and vehicle; significant at day 19 to end
Experimental: (§3) In vivo testing was performed on 5-month-old female C57BL/6 wildtype mice injected intravenously with PHP.B hSyn-NSP5-V5 adeno-associated virus (AAV) and treated daily with compound 22 (10 mg/kg), Paxlovid (nirmatrelvir/ritonavir) (10 mg/kg nirmatrelvir: 3.33 mg/kg ritonavir) or a vehicle control (n=10 per group).
Weight loss was monitored over a 21-day period post injection with the AAV.

[6] = system: PHP.B hSyn-NSP5-V5 adeno-associated virus; test: Hanging wire test; format: in vivo, mouse; settings: 10 mg/kg daily, vs Paxlovid and vehicle
Experimental: as §3
Motor testing was performed on the Rota-rod five times daily over a three-day testing period as previously described (refer to Ke et al. (2015) Acta Neuropathol, 130: 661-678). Motor coordination was also assessed using the hanging wire test at 14 and 22 days post injection with the AAV, which assessed the time hanging upside down on a wire grid (refer to Chan et al. (2020) Am J Path, 190(8): 1713-1722). Anxiety, disinhibition and exploratory behaviour was assessed using the elevated plus maze (EPM) test as previously described (refer to Ke et al. (2015) Acta Neuropathol, 130: 661-678).

[7] = mouse, plasma, IP 10 mg/kg, male C57BL/6 mice

## NC(=O)C1CCN(c2ncccc2CNCc2cccc3[nH]ccc23)CC1 [Compound 22]
[1]
  Prevention of NSP5-induced neuronal death: prevented NSP5-induced neuronal death in a dose-dependent manner
Primary neurons
  Protection from H2O2-induced neurotoxicity: did not protect
[2]; IP 10 mg/kg, truncated AUC0-7.5 h, likely slight underestimation, 10 mg/kg, 450 min
  BA (apparent bioavailability): 47.3%
[2]; mouse, plasma, ip, 10 mg/kg, truncated AUC0-7.5 h, likely slight underestimation, read-out: BA (apparent bioavailability)
  bioavailability at 7.5 h: 47%
[2]; [7]
  Cmax: 4.25 µM
  Tmax: 15 min
[2]; mouse, plasma, IP 10 mg/kg, male C57BL/6 mice, read-out: Plasma AUC0-last
  AUC(0-t): 2.56 µM·h
[3]
  blood plasma ratio at 1 h: 1.4
[4]
  Adverse reactions or compound-related side effects: no adverse reactions or compound-related side effects observed
[5]
  Weight loss from 17 days post injection: weight loss was less severe
[6]; 14 days post AAV
  Hanging wire test, mice reaching maximum time: more compound 22-treated mice reaching the maximum time
[6]; 22 days post AAV
  Hanging wire test, mice reaching maximum time: more compound 22-treated mice reaching the maximum time
